Measurements as given in US20240245085A1, “FLAVORING COMPOSITIONS FOR TASTE IMPROVEMENT” (SYMRISE AG, priority 2021, published 2024).
“Also recorded” adds a separate entry of the source.

Assays:
Assay type in all cases: in vivo
caffeine (500 mg/kg) [1] = assay: Bitter-duo test (paired comparison, trained panel, nose-clips) with caffeine
Description: (§1) A trained panel was given different samples with the bitter tasting substances caffeine (500 mg/kg), quinine (10 mg/kg) and naringin (100 mg/kg). Caffeine is the bitter principle of coffee and coffee-type beverages, quinine is used as food additive to flavor tonics or energy drinks and naringin is the bitter principle of grapefruit juice. Each test includes a different amount of bitter-masking substances or mixtures thereof. During the tests, the panellists wear nose-clips to exclude any olfactory impressions. These tests are referred to as bitter-duo tests. In a first trial, above mentioned bitter samples were mixed with 10 mg/kg eriodictyol-7-O-glucoside at a purity of >95%. […] In a second test, the bitter agents were mixed with 50 mg/kg eriocitrin at a purity of >95% and the bitter-masking effect evaluated by the panel.

naringin (100 mg/kg) = assay: Bitter-duo test (paired comparison, trained panel, nose-clips) with naringin
Description: as §1

[2] = Own taste of eriodictyol-7-O-glucoside at higher concentration; details: concentration above 50 mg/kg
quinine (10 mg/kg) = assay: Bitter-duo test (paired comparison, trained panel, nose-clips) with quinine
Description: A trained panel was given different samples with the bitter tasting substances caffeine (500 mg/kg), quinine (10 mg/kg) and naringin (100 mg/kg). Caffeine is the bitter principle of coffee and coffee-type beverages, quinine is used as food additive to flavor tonics or energy drinks and naringin is the bitter principle of grapefruit juice. Each test includes a different amount of bitter-masking substances or mixtures thereof. During the tests, the panellists wear nose-clips to exclude any olfactory impressions. These tests are referred to as bitter-duo tests.
In a first trial, above mentioned bitter samples were mixed with 10 mg/kg eriodictyol-7-O-glucoside at a purity of >95%.
In a second test, the bitter agents were mixed with 50 mg/kg eriocitrin at a purity of >95% and the bitter-masking effect evaluated by the panel.
Another trial was set-up using samples with 10 mg/kg quinine and 50 mg/kg eriodictyol (ED) alone or with an inventive flavoring composition containing eriodictyol-7-O-glucoside (EDMG) and neoeriocitrin (NEC) eriocitrin (EC). […] The same effect was observed when using neoeriocitrin instead of eriocitrin. The wt.-% are based on the dry weight of the flavoring composition.
Other solvents than methanol, mixtures of solvents and different CV ratios can be used in order to achieve the same purification than with methanol as described herein. The column volume ration (CV) is the ratio of column bed volume and volume of solution flowing through column. The product was evaluated by a sensory panel (n=20).

caffeine (500 mg/kg) [3] = assay: Pairwise bitter intensity rating (scale 1-100) in water with 500 mg/kg caffeine; details: for bitter masking of caffeine solution (in words): 50 mg/kg, 500 mg/kg caffeine; for Bitter intensity [0-100] of base: taste modulator 50 mg/kg in water with 500 mg/kg caffeine
Description: The said mixture can be compared with further taste modulating compounds to impart taste modulating sensory effects. […] A masking mixture comprising three parts hesperetin, two parts naringenin and two parts of the inventive citrus hydrolysate (55 wt.-% ED, 11.1 wt.-% EDMG, 1.5 wt.-% EC) was tested with 50 mg/kg dosage against naringenin, hesperetin and homoeriodictyol (No. 1-3, Table 5). The compounds and the mixture were all solved in water with added 500 mg/kg caffeine as bitter agent. The panelists were asked to rate the bitter intensity of each sample of one sample pair on a scale of 1-100. […] Said mixtures can be obtained by mixing the inventive citrus hydrolysate with hydrolysates from orange (yielding hesperetin), grapefruit or bergamot (yielding naringenin) or bitter orange and lime among other citrus fruits.

vegan patty = assay: Blind tasting of vegan patties by a panel (sensory profile)
Description: A vegan patty has been produced containing the following ingredients: water, leguminose protein isolate, sun flower oil, leguminose protein concentrate, coconut oil, methylcellulose, fiber, salt, starch, lactic acid and sodium diacetate. Water, thickener and starch are mixed with water, pH is adjusted, proteins are added next followed by fibre and oil ingredients. Finally, a taste masking ingredient according to Table 4 is added. The ingredients are thoroughly mixed and the dough is formed to patties. The patties where baked in an oven at 200° C. After cooling the patties, patties were sliced and samples were coded for a blind tasting with a panel.

[4] = Table 1, dosage 10 mg/kg, 20 panellists
[5] = Table 2, dosage 10 mg/kg in table (text: 50 mg/kg), 20 panelists

In the case of `O=C1C[C@@H](c2ccc(O)c(O)c2)Oc2cc(O[C@@H]3O[C@H](CO)[C@@H](O)[C@H](O)[C@H]3O)cc(O)c21` [eriodictyol-7-O-glucoside], the “bitter-reducing effect (in words)” value (caffeine (500 mg/kg) [1]; 10 mg/kg, purity >95%) is reported as “not significant”, the “Bitter masking activity (%)” value (caffeine (500 mg/kg) [1]; [4]) is reported as −1.94% and the “bitter-reducing effect (in words)” value (naringin (100 mg/kg); 10 mg/kg, purity >95%) is reported as “not significant”. The “Bitter masking activity (%)” value (naringin (100 mg/kg); [4]) was −2.59%, the own taste notes [2] was “bitter notes” and the “bitter-reducing effect (in words)” value (quinine (10 mg/kg); 10 mg/kg, purity >95%, quinine 10 mg/kg) was “not significant”. For the same compound, the “Bitter masking activity (%)” value (quinine (10 mg/kg); Table 1, dosage 10 mg/kg, quinine 10 mg/kg, 20 panellists) was −7.42%.
In the case of `C[C@@H]1O[C@@H](OC[C@H]2O[C@@H](Oc3cc(O)c4c(c3)O[C@H](c3ccc(O)c(O)c3)CC4=O)[C@H](O)[C@@H](O)[C@@H]2O)[C@H](O)[C@H](O)[C@H]1O` [eriocitrin, Eriocitrin], the “bitter masking effect (in words)” value (caffeine (500 mg/kg) [1]; 50 mg/kg, purity >95%) is reported as “not significant”, the “Bitter masking activity (%)” value (caffeine (500 mg/kg) [1]; [5]) is reported as 5.6% and the “bitter masking effect (in words)” value (naringin (100 mg/kg); 50 mg/kg, purity >95%) is reported as “not significant”. The “Bitter masking activity (%)” value (naringin (100 mg/kg); [5]) was 0.8%, the “bitter masking effect (in words)” value (quinine (10 mg/kg); 50 mg/kg, purity >95%, quinine 10 mg/kg) was “not significant” and the “Bitter masking activity (%)” value (quinine (10 mg/kg); Table 2, dosage 10 mg/kg in table (text: 50 mg/kg), quinine 10 mg/kg, 20 panelists) was −1.6%.
With `O=C1C[C@@H](c2ccc(O)cc2)Oc2cc(O)cc(O)c21` [Naringenin] the “bitter masking of caffeine solution (in words)” value (caffeine (500 mg/kg) [3]) was “not potent bitter masking compounds” and the “Bitter intensity [0-100] of base” value (caffeine (500 mg/kg) [3]) was 36.4.
With `O=C1C[C@@H](c2ccc(O)c(O)c2)Oc2cc(O)cc(O)c21` [ED, Eriodictyol] the “taste improving and bitter masking property (in words)” value (vegan patty) was “improved the taste profile” and the “Bitter masking activity (%)” value (quinine (10 mg/kg); Table 3, dosage 50 mg/kg, 10 mg/kg quinine, 18-20 panellists) was −31.0%.
For `COc1cc([C@@H]2CC(=O)c3c(O)cc(O)cc3O2)ccc1O` [Homoeriodictyol], the “Bitter intensity [0-100] of base” value (caffeine (500 mg/kg) [3]) was 37.5 and the “taste improving and bitter masking property (in words)” value (vegan patty) was “improved the taste profile; also recorded: reduced the bitterness more than eriodictyol”.
In the case of `COc1ccc([C@@H]2CC(=O)c3c(O)cc(O)cc3O2)cc1O` [Hesperetin], the “bitter masking of caffeine solution (in words)” value (caffeine (500 mg/kg) [3]) is reported as “not potent bitter masking compounds” and the “Bitter intensity [0-100] of base” value (caffeine (500 mg/kg) [3]) is reported as 39.
